Experimental data as given in patent US8192962B2, “Processes for detecting toxic substances” (Daikin Industries, Ltd., priority 2001, dated 2012).

System: Energy system protein genes
Assay: DNA chip mRNA expression in yeast, energy system protein genes (Table 4)
Assay type: cell-based, Saccharomyces cerevisiae S288C
Summary of the method: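 Whole-genome yeast DNA chip hybridization (65° C., >12 h) of Cy-labeled cDNA from S288C cells exposed 2 h at 25° C. to a sub-lethal toxicant dose in YPD; value is intensity relative to chemical-free control.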

Measured: The level of expressed mRNA in the presence of chemical substance/The level of expressed mRNA in the absence of chemical substance

CCCCCCCCCCCCc1ccc(S(=O)(=O)[O-])cc1.[Na+] [(17), sodium dodecylbenzosulfonate]
2.4: yeast gene YNL202W, cells incubated two hours with the chemical substance | yeast gene YPL171C
0.9: yeast gene YKL141W, cells incubated two hours with the chemical substance | yeast gene YLR044C, cells incubated two hours with the chemical substance | yeast gene YLR295C, cells incubated two hours with the chemical substance, 25° C., YPD medium | yeast gene YLR377C, cells incubated two hours with the chemical substance | yeast gene YMR267W, cells incubated two hours with the chemical substance, 25° C., YPD medium | yeast gene YOR142W, cells incubated two hours with the chemical substance
0.6: yeast gene YLR134W, cells incubated two hours with the chemical substance | yeast gene YMR205C, cells incubated two hours with the chemical substance
1.0: yeast gene YKL016C, cells incubated two hours with the chemical substance | yeast gene YLR258W, cells incubated two hours with the chemical substance | yeast gene YLR354C, cells incubated two hours with the chemical substance | yeast gene YML120C, cells incubated two hours with the chemical substance | yeast gene YNL071W | yeast gene YNL241C | yeast gene YOR178C, cells incubated two hours with the chemical substance | yeast gene YOR388C, cells incubated two hours with the chemical substance | yeast gene YPL275W, cells incubated two hours with the chemical substance | yeast gene YPR184W, cells incubated two hours with the chemical substance
1.2: yeast gene YJR048W | yeast gene YKL060C, cells incubated two hours with the chemical substance | yeast gene YLR038C, cells incubated two hours with the chemical substance | yeast gene YLR345W | yeast gene YLR395C, cells incubated two hours with the chemical substance
1.4: yeast gene YPL031C, cells incubated two hours with the chemical substance
1.9: yeast gene YKR009C, cells incubated two hours with the chemical substance
0.5: yeast gene YLR304C, cells incubated two hours with the chemical substance
1.7: yeast gene YNL331C
1.6: yeast gene YOL165C | yeast gene YPL061W, cells incubated two hours with the chemical substance
0.8: yeast gene YKL148C, cells incubated two hours with the chemical substance | yeast gene YKR058W, cells incubated two hours with the chemical substance, 25° C., YPD medium | yeast gene YMR073C, cells incubated two hours with the chemical substance | yeast gene YMR118C | yeast gene YPL240C
1.1: yeast gene YJR121W, cells incubated two hours with the chemical substance | yeast gene YKR097W | yeast gene YLL041C, cells incubated two hours with the chemical substance | yeast gene YMR323W, cells incubated two hours with the chemical substance | yeast gene YOL086C, cells incubated two hours with the chemical substance | yeast gene YPL262W, cells incubated two hours with the chemical substance | yeast gene YPL276W, cells incubated two hours with the chemical substance
9.1: yeast gene YPL088W
2.9: yeast gene YLR284C, cells incubated two hours with the chemical substance
0.7: yeast gene YML087C | yeast gene YMR261C, cells incubated two hours with the chemical substance | yeast gene YPR048W, cells incubated two hours with the chemical substance
1.3: yeast gene YJR155W | yeast gene YML129C, cells incubated two hours with the chemical substance
